The results in this text go back to paper PMC4481955, “Sensitive, Fast, and Specific Immunoassays for Methyltestosterone Detection” (Sensors (Basel, Switzerland), 2015).

The subject of one experiment is anti-MT mAb. Description: indirect competitive ELISA (icELISA) with anti-MT monoclonal antibody. Format: binding, mouse. The conditions noted are these: for CR (%): CR = (IC50 of MT/IC50 of competition analogue) x 100%. As for the experimental part:
(§1) Checkerboard titration was used for the determination of optimum coating antigen and antibody concentrations in icELISA. A 96-well microplate was coated with 100 μL/well MT-CMO-OVA (0.1 μg/mL, in 0.05 M CBS, pH 9.6) and incubated overnight at 4 °C. The wells were washed three times with washing buffer (0.01 M, PBS, containing 0.2% Tween 20) to remove free coating antigen and blocked with 220 μL blocking buffer (0.05 M, 0.2% Gelatin in CBS) at 37 °C for 2 h.
After washing, 50 μL of different concentrations of standard and 50 μL of antibody were added to wells and incubated at 37 °C for 30 min. Following another wash to remove unbound antibody and standards, 100 μL of 1:3000 diluted HRP-labelled goat anti-mouse IgG was added to each well and incubated for 30 min at 37 °C. After washing three times, 100 μL of substrate was added and incubated for 15 min at 37 °C. The enzymatic reaction was stopped with 50 μL sulfuric acid (2 M) per well. A microplate reader was used to determine the absorbance of each well at 450 nm.
Three immunoassay parameters (methanol content, ionic strength and pH of the solvent) were optimized to improve both the stability and sensitivity of icELISA. The criteria used to evaluate immunoassay performance were half inhibition concentration (IC50), maximum absorbance (Amax) and Amax/IC50. To optimize the methanol content in the solvent, PBS was mixed with different contents of methanol (0%, 5%, 10% and 20%). For ionic strength optimization, different concentrations of PBS (5, 10, 20, and 40 mM) were used. Finally, for solvent pH optimization, PBS was adjusted to different pH values (4.7–9.6).
In this study, mAb specificity was investigated by cross-reactivity (CR). Competition analogues (testosterone, nor-testosterone, estradiol, estriol, progesterone, epitestosterone, dihydrotestosterone and dexamethasone) were prepared in methanol at 1 mg/mL. A series of standard solutions (0, 1, 2, 5, 10, 20, 50 and 100 ng/mL) were diluted with optimized PBS and subjected to icELISA. CR values were calculated with the following formula: CR (%) = (IC50 of MT/IC50 of competition analogue) × 100%

The subject of experiment [1] is antisera (mouse No. 16), anti-MT activity. The experiment is described as follows: icELISA screening of mouse antiserum for anti-MT activity. Format: binding. The following applies: mouse No. 16, after two subsequent injections, MT in PBS. As for the experimental part: Female BALB/c mice (8–10 weeks old) were injected subcutaneously at multiple sites with the immunogen MT-CMO-BSA (100 μg in 0.1 mL saline) emulsified with an equal volume of Freund’s complete adjuvant. For subsequent boosters administered at one-month intervals, Freund’s incomplete adjuvant was used. Antisera were collected following the third booster immunization and screened for anti-MT activity by icELISA [27]. The mouse with the highest anti-MT activity was administered the immunogen (20 μg in 0.2 mL saline) by intraperitoneal injection and sacrificed three days later for cell fusion.
as §1
After washing, 50 μL of different concentrations of standard and 50 μL of antibody were added to wells and incubated at 37 °C for 30 min. […] A microplate reader was used to determine the absorbance of each well at 450 nm.

[2] abbreviates: optimized icELISA, PBS 10 mM, pH 7.4.

By IC50 is commonly meant the concentration at which inhibition is half-maximal.

SMILES strings stand for the structures.

For `C[C@@H]1C[C@H]2[C@@H]3CCC4=CC(=O)C=C[C@]4(C)[C@@]3(F)[C@@H](O)C[C@]2(C)[C@@]1(O)C(=O)CO` [Dexamethasone], the “CR (%)” value in the experiment with anti-MT mAb was less than 0.26%. Further, the concentration for half-maximal inhibition (IC50) in the experiment with anti-MT mAb (setting [2]) is reported as greater than 100 ng/mL.
For `C[C@]12CCC(=O)C[C@@H]1CC[C@@H]1[C@@H]2CC[C@]2(C)[C@@H](O)CC[C@@H]12` [Dihydrotestosterone], in the experiment on anti-MT mAb, the “CR (%)” value is recorded as less than 0.26%. The IC50 in the experiment on anti-MT mAb (setting [2]) is listed as greater than 100 ng/mL.
As for `C[C@]12CC[C@H]3[C@@H](CCC4=CC(=O)CC[C@@]43C)[C@@H]1CC[C@H]2O` [Epitestosterone], in the experiment with anti-MT mAb, the “CR (%)” value is less than 0.26%. In the experiment on anti-MT mAb (setting [2]), the IC50 was greater than 100 ng/mL.
Consider `C[C@]12CC[C@@H]3c4ccc(O)cc4CC[C@H]3[C@@H]1CC[C@@H]2O` [Estradiol], for which the “CR (%)” value in the experiment with anti-MT mAb is reported as 0.52%. In addition, the concentration for half-maximal inhibition (IC50) in the experiment on anti-MT mAb (setting [2]) was determined as 50 ng/mL.
As to `C[C@]12CC[C@@H]3c4ccc(O)cc4CC[C@H]3[C@@H]1C[C@@H](O)[C@@H]2O` [Estriol], the “CR (%)” value in the experiment with anti-MT mAb is listed as less than 0.26%. Also, the IC50 with anti-MT mAb (setting [2]) is on record as greater than 100 ng/mL.
For `C[C@]12CCC(=O)C=C1CC[C@@H]1[C@@H]2CC[C@@]2(C)[C@H]1CC[C@]2(C)O` [Methyltestosterone], in experiment [1], the IC50 of antiserum result is reported as “approximately 3 ng/mL”. In the experiment with anti-MT mAb, the “CR (%)” value came to 100%. Besides, the IC50 worked out at 0.68 ± 0.017 ng/mL in the experiment with anti-MT mAb (ionic strength (PBS) 5 mM); 0.398 ± 0.024 ng/mL with anti-MT mAb (ionic strength (PBS) 10 mM); 0.565 ± 0.024 ng/mL in the experiment on anti-MT mAb (ionic strength (PBS) 20 mM); 0.504 ± 0.092 ng/mL with anti-MT mAb (ionic strength (PBS) 40 mM); 0.418 ± 0.02 ng/mL in the experiment on anti-MT mAb (methanol content 0%); 0.567 ± 0.023 ng/mL in the experiment with anti-MT mAb (methanol content 5%). Besides, the IC50 with anti-MT mAb (methanol content 10%) was 0.418 ± 0.05 ng/mL; in the experiment on anti-MT mAb (methanol content 20%) it was 0.626 ± 0.009 ng/mL; with anti-MT mAb (setting [2]), 0.26 ng/mL; with anti-MT mAb (pH 4.7), 0.456 ng/mL; with anti-MT mAb (pH 6.0), 0.723 ± 0.038 ng/mL; in the experiment with anti-MT mAb (pH 7.4) it was 0.455 ng/mL. Also, the IC50 is recorded as 0.577 ± 0.026 ng/mL in the experiment with anti-MT mAb (pH 8.6) and 0.714 ± 0.007 ng/mL in the experiment on anti-MT mAb (pH 9.6). For the same compound, the “IC50 of purified mAb” value in the experiment with anti-MT mAb (purified mAb from hybridoma 1E12, before optimization) turned out to be 0.4 ng/mL.
As to `C[C@]12CC[C@H]3[C@@H](CCC4=CC(=O)CC[C@@H]43)[C@@H]1CC[C@@H]2O` [Nor-testosterone], in the experiment on anti-MT mAb, the “CR (%)” value worked out at 1.04%. Moreover, the IC50 in the experiment on anti-MT mAb (setting [2]) is recorded as 25 ng/mL.
Consider `CC(=O)[C@H]1CC[C@H]2[C@@H]3CCC4=CC(=O)CC[C@]4(C)[C@H]3CC[C@]12C` [Progesterone], for which the “CR (%)” value in the experiment on anti-MT mAb is reported as less than 0.26%. In the experiment on anti-MT mAb (setting [2]), the IC50 is greater than 100 ng/mL.
`C[C@]12CC[C@H]3[C@@H](CCC4=CC(=O)CC[C@@]43C)[C@@H]1CC[C@@H]2O` [Testosterone]: the IC50 in the experiment with anti-MT mAb (setting [2]) is reported as 12 ng/mL.
